Laboratory results as given in ChEMBL document CHEMBL5465560, “Selectivity Literature for EUbOPEN Chemogenomic Library” (2024).

Columns and labels:
[1] = target: T1, Dual specificity tyrosine-phosphorylation-regulated kinase 2 (Homo sapiens) (UniProt Q92630); assay: Selectivity interaction (Kinase panel (literature)) EUB0001199aCl DYRK2; conditions: at 1 µM
T1 sequence (whole entry): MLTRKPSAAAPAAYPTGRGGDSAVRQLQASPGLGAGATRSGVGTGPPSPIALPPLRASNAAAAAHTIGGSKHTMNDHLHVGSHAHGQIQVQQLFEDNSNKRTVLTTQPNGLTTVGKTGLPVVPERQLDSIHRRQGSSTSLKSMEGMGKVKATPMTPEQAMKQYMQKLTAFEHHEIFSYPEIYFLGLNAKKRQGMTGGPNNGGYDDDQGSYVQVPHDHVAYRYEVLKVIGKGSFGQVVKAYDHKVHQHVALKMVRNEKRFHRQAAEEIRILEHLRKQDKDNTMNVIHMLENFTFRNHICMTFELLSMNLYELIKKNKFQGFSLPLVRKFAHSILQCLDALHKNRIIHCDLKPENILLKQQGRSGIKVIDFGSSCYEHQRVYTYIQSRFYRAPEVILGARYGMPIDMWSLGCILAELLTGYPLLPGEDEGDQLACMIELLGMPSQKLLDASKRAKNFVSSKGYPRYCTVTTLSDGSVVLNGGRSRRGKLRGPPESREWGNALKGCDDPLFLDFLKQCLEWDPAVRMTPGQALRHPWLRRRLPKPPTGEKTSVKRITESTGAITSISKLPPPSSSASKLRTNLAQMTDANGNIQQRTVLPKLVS

[2] = target: Mitogen-activated protein kinase kinase kinase 8 (Homo sapiens, UniProt P41279); assay: Selectivity interaction (Kinase panel (33PanQinase(R) Activity Assay)) EUB0000877a MAP3K8
Sequence of Mitogen-activated protein kinase kinase kinase 8 (P41279 whole entry): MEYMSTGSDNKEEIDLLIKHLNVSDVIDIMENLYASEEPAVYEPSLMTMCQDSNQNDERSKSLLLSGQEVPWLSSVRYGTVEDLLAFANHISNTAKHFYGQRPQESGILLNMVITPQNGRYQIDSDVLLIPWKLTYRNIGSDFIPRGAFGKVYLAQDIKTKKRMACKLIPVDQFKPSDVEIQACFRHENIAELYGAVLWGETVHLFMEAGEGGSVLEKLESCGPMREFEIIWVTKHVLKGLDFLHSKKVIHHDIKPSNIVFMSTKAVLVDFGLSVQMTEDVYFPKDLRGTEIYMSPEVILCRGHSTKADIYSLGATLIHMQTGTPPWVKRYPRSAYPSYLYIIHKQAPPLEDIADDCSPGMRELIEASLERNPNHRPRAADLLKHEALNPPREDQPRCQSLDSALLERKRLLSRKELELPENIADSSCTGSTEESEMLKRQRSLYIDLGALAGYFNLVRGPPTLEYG

[3] = target: T2, Serine/threonine-protein kinase greatwall (Homo sapiens) (UniProt Q96GX5); assay: Selectivity interaction (ActivX KiNativ screen (kinase selectivity in THP-1 cell lysates)) EUB0000639a MASTL; assay type: subcellular; conditions: lysate
T2 sequence (whole entry): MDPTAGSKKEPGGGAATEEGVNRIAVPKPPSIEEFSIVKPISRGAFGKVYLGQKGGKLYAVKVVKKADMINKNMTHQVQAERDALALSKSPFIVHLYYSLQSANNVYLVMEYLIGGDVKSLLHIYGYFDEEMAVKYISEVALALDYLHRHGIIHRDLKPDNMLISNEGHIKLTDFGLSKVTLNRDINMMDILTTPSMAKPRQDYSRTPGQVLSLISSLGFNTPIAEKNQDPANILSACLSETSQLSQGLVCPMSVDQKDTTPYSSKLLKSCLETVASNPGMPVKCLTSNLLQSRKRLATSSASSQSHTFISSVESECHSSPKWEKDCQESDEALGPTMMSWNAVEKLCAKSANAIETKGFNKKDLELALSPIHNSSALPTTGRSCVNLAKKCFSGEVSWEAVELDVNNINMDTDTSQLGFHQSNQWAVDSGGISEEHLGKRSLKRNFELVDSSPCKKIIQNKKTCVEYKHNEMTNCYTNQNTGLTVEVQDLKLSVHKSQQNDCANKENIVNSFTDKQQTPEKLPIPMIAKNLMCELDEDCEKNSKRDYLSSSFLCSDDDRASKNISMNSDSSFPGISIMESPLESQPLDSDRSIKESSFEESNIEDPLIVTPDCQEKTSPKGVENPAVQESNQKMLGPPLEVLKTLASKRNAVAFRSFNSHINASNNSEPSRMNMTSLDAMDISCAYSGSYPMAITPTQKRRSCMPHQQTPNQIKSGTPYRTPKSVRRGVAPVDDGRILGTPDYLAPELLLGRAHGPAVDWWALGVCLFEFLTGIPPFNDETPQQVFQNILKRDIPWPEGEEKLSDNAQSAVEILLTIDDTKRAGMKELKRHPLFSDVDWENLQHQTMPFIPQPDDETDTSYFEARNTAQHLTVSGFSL

[4] = target: Tyrosine-protein kinase Yes (Homo sapiens) (UniProt P07947); assay: Selectivity interaction (KinomeScan (DiscoverX)) EUB0000595a YES1; conditions: at 10 µM
Sequence of Tyrosine-protein kinase Yes (Homo sapiens) (P07947 2-543 limits assumed): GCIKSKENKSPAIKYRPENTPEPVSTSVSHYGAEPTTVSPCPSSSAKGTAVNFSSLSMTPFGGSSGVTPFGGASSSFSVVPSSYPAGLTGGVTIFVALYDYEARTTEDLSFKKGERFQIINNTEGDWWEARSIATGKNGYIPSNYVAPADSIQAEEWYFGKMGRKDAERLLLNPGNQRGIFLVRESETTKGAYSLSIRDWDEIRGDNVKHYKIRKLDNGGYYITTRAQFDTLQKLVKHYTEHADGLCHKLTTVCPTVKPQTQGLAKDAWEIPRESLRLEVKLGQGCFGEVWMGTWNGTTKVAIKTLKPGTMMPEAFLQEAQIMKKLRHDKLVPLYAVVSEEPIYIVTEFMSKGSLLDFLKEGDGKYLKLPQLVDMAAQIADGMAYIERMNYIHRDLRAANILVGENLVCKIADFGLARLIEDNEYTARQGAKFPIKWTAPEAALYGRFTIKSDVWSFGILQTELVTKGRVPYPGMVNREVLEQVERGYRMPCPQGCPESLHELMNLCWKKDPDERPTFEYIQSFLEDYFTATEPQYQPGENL

[5] = target: T3, Serine/threonine-protein kinase Nek5 (Homo sapiens) (UniProt Q6P3R8); assay: Selectivity interaction (Ambit KINOMEscan and KiNATiv profiling in Jurkat cells) EUB0000090b NEK5; assay type: cell-based; conditions: at 1 µM
T3 sequence (whole entry): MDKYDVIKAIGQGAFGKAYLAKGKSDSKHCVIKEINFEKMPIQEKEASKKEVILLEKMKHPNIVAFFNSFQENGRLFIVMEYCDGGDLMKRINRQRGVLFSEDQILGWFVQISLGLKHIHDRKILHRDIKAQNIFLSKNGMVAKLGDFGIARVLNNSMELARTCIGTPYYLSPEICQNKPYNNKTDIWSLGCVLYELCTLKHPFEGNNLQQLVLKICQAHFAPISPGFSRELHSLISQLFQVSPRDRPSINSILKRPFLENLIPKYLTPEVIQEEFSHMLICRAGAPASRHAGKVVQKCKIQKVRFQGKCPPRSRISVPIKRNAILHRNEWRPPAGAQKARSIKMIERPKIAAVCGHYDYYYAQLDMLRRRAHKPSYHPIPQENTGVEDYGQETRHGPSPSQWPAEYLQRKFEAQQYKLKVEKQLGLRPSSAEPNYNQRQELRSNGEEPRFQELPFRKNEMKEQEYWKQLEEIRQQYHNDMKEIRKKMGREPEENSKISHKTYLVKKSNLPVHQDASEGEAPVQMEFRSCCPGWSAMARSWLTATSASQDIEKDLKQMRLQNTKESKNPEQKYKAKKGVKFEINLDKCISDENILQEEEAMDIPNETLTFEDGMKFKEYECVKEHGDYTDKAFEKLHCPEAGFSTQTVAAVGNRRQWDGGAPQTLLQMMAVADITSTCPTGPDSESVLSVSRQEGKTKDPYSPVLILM

## CN1Cc2nccc(-c3cn(C)nc3-c3ccc(F)cc3)c2C1=O
[1]
  % of inhibition: 13%

## CCC(=O)N1CC[C@H](Nc2ncnc3c2CN(c2cnc(OC)c(C(F)(F)F)c2)CC3)C1 [LENIOLISIB]
[2]
  IC50: > 10 µM

## CC[C@@H]1[C@H](F)C(=O)N[C@@H]1COc1nccc2cc(C(N)=O)c(OC)cc12 [ZIMLOVISERTIB]
[3]; at 0.01 µM
  % of inhibition: -10.8%
[3]; at 0.04 µM
  % of inhibition: 0.7%
[3]; at 0.2 µM
  % of inhibition: 12.7%
[3]; at 1 µM
  % of inhibition: 37.8%
[3]; at 5 µM
  % of inhibition: 78.5%

## COCC(=O)NC/C=C/c1ccc2ncnc(Nc3ccc(Oc4ccc(C)nc4)c(C)c3)c2c1 [CP-724714]
[4]
  % of control: 65%

## CN(C)C/C=C/C(=O)Nc1ccc(C(=O)N2CCCC(Nc3ncc(Cl)c(-c4c[nH]c5ccccc45)n3)C2)cc1 (centres undefined)
[5]
  % of control: 86%
